A value given as a limit tells only on which side of the number the result lay.

The target of test [1] is Recombinant full-length human IDO1 (Homo sapiens (Human), UniProt P14902). Put plainly: IDO1 enzymatic assay (IDO inhibitory activity). The test is classed as biochemical. The following applies: 2 nM enzyme, 5 μM L-tryptophan, pH6.5, 30 min pre-incubation, NFK quantified by LCMS; mean values if measured multiple times; read-out: hIDO activity (IC50 in nM). In short, it runs like this:
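N-His-tagged enzyme from E. coli at 2 nM in 37.5 mM phosphate pH6.5 with ascorbate, methylene blue, catalase; compounds 10 μM–0.5 nM, 0.6% DMSO, pre-incubated 30 min RT, then 5 μM L-tryptophan for 30 min RT. NFK quantified by LCMS against d5-tryptophan; IC50 from duplicate four-parameter fit, means where repeated.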

For test [2], the target named is Recombinant human TDO comprising amino acids 19-407 (Homo sapiens (Human), UniProt P48775). The experiment in a line: TDO2 enzymatic assay (TDO inhibitory activity). In kind it is biochemical. Particulars: 15 nM enzyme, 200 μM L-tryptophan, pH7, 30 min pre-incubation, NFK quantified by LCMS; mean values if measured multiple times; read-out: hTDO activity (IC50 in nM). The gist of the method:
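His-tagged enzyme (15 nM, E. coli-expressed) in pH 7 phosphate buffer with ascorbate, catalase, BSA, Tween 20, 0.6% DMSO; 30 min RT pre-incubation with compound (10 μM–0.5 nM), then 200 μM L-tryptophan for 30 min RT. N′-formylkynurenine quantified by LCMS against deuterated tryptophan; IC50 by four-parameter fit, duplicates.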

Sequence of Recombinant human TDO comprising amino acids 19-407 (P48775 19-406 limits assumed): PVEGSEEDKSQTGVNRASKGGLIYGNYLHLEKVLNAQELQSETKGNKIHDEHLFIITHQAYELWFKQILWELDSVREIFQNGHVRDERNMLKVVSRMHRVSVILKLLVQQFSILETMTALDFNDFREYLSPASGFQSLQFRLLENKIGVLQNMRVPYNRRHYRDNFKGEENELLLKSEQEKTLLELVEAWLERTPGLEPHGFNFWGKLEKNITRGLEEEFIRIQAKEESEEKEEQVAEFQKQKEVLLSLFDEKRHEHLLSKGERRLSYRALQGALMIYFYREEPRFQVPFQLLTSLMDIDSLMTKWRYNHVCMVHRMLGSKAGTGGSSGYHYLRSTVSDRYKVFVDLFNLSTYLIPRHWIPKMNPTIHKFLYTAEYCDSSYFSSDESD
Sequence of Recombinant full-length human IDO1 (P14902 whole entry): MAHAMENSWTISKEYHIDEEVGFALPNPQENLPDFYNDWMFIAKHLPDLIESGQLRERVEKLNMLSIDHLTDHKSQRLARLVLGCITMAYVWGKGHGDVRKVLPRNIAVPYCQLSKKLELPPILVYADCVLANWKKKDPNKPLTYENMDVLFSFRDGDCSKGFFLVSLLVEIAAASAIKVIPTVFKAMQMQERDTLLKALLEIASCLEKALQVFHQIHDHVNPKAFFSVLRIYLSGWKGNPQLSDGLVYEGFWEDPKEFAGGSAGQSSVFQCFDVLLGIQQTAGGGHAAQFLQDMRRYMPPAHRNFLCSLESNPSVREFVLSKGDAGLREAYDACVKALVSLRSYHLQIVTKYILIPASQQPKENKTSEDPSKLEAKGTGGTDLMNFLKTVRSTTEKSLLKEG

As for `CC1CCC(C(O)c2c(C3CC3)sc3cncn23)CC1` (racemic) [Example 44, rac-(2-Cyclopropyl-imidazo[5,1-b]thiazol-3-yl)-(4-methyl-cyclohexyl)-methanol], the half-inhibitory concentration (IC50) in test [1] is 15.8 nM; in test [2], 383 nM.
In the case of `OC(c1c(Br)sc2cncn12)C1CCCCC1` (racemic) [Example 14, rac-(2-Bromoimidazo[5,1-b]thiazol-3-yl)(cyclohexyl)methanol], the IC50 turned out to be 28 nM in test [1] and 218 nM in test [2].
In the case of `CC1(C)CCCC1C(O)c1c(C2CC2)sc2cncn12` (stereo not drawn) [Example 84, (2-Cyclopropyl-imidazo[5,1-b]thiazol-3-yl)-(2,2-dimethyl-cyclopentyl)-methanol], the values for the concentration for half-maximal inhibition (IC50) in test [1] and in test [2] were 74 nM and 133 nM, respectively.
For the compound `OC(CC1CCC(F)(F)CC1)c1c(C2CC2)sc2cncn12` (racemic) [Example 71, rac-1-(2-Cyclopropyl-imidazo[5,1-b]thiazol-3-yl)-2-(4,4-difluoro-cyclohexyl)-ethanol], the half-maximal inhibitory concentration (IC50) in test [1] turned out to be 28.5 nM; in test [2] it was 263 nM.
`OC(c1ccccc1Cl)c1c(C2CC2)sc2cncn12` (racemic) [Example 164, rac-(2-Chloro-phenyl)-(2-cyclopropyl-imidazo[5,1-b]thiazol-3-yl)-methanol]: the IC50 came out at 1120 nM in test [1] and 3020 nM in test [2].
The matching figures for `CC1(C)CCCC(CC(O)c2c(C3CC3)sc3cncn23)C1` (stereo not drawn) [Example 106, 1-(2-Cyclopropyl-imidazo[5,1-b]thiazol-3-yl)-2-(3,3-dimethyl-cyclohexyl)-ethanol]: 85.1 nM and 546 nM.
As to `CC[C@H](C)c1sc2cncn2c1C(O)C1CCCCC1` (stereo partly drawn) [Example 185, [2-((S)-sec-Butyl)-imidazo[5,1-b]thiazol-3-yl]-cyclohexyl-methanol], the IC50 is 172 nM in test [1] and 962 nM in test [2].
As to `CCn1cc(C(O)c2c(C3CC3)sc3cncn23)nn1` (racemic) [Example 193, rac-(2-Cyclopropyl-imidazo[5,1-b]thiazol-3-yl)-(1-ethyl-1H-[1,2,3]triazol-4-yl)-methanol], the half-inhibitory concentration (IC50) is 498 nM in test [1] and greater than 10200 nM in test [2].
Consider `OC(c1cccs1)c1c(Cl)sc2cncn12` (racemic) [Example 15, rac-(2-Chloro-imidazo[5,1-b]thiazol-3-yl)-thiophen-2-yl-methanol], for which the concentration for half-maximal inhibition (IC50) in test [1] was found to be 333 nM; in test [2], 690 nM.
Regarding `OC(CC1CCC(C(F)F)CC1)c1c(C2CC2)sc2cncn12` (racemic) [Example 138, rac-1-(2-Cyclopropyl-imidazo[5,1-b]thiazol-3-yl)-2-(4-difluoromethyl-cyclohexyl)-ethanol], the IC50 is 24.3 nM in test [1] and 467 nM in test [2].
On to `O[C@H](c1c(C2CCCC2)sc2cncn12)C1CCCCC1` [Example 9a, (S)-Cyclohexyl(2-cyclopentylimidazo[5,1-b]thiazol-3-yl)methanol], for which the IC50 in test [1] and in test [2] was 131 nM in each case.
On to `OC(CC1CCC(C(F)(F)F)CC1)c1c(C2CC2)sc2cncn12` (racemic) [Example 42, rac-1-(2-Cyclopropyl-imidazo[5,1-b]thiazol-3-yl)-2-(4-trifluoromethyl-cyclohexyl)-ethanol], for which the half-inhibitory concentration (IC50) in test [1] amounted to 92.2 nM; in test [2], 520 nM.
Regarding `OC(c1c(C2CC2)sc2cncn12)C1CCC1` (racemic) [Example 43, rac-Cyclobutyl-(2-cyclopropyl-imidazo[5,1-b]thiazol-3-yl)-methanol], the IC50 in test [1] was 25.1 nM; in test [2], 907 nM.
As to `COc1ccccc1C(O)c1c(C2CC2)sc2cncn12` (racemic) [Example 147, rac-(2-Cyclopropyl-imidazo[5,1-b]thiazol-3-yl)-(2-methoxy-phenyl)-methanol], the IC50 stood at 1110 nM in test [1] and 6800 nM in test [2].
For `CC1CCC(C(O)c2c(C(F)(F)F)sc3cncn23)C1` (stereo not drawn) [Example 116, (3-Methyl-cyclopentyl)-(2-trifluoromethyl-imidazo[5,1-b]thiazol-3-yl)-methanol], in that order: 45.5 nM and 701 nM.

(Values after patent US11267824B2, “Inhibitors of indoleamine 2,3-dioxygenase and/or tryptophan 2,3-dioxygenase” (IDORSIA PHARMACEUTICALS LTD, priority 2017, dated 2022).)
